Structures can show the parent of a compound that is named as a salt.
Legend:
[1] = target: catalytic domain of human JAK3 (Homo sapiens, UniProt P52333); experiment: Inhibition of JAK3 activity (Z'-Lyte Kinase Assay kit-Tyr 6 Peptide); type: biochemical
Procedure: The inhibition of JAK3 kinase activity was determined in 384-well assay microplates using the Z′-Lyte® Kinase Assay kit-Tyr 6 Peptide kit, supplied by Invitrogan (Ref: PV4122), following the manufacturer's instructions.
(§1) In a final volume of 10 μL per well, 2.5 μL of the product to be tested dissolved in 4% DMSO (final concentration of the product to be tested, 0.1-10000 nM) was incubated with 0.3 μg/mL of the catalytic domain of human JAK3 (amino acid sequence 281-1124), 2 μM of the substrate peptide Z′-Lyte® Tyr 6 and 4 μM of ATP; all components were dissolved in 50 mM pH 7.5 Hepes buffer, 10 mM Magnesium chloride (II), 1 mM EGTA and 0.01% Brij® 35. The reaction was started by the addition of said 4 μM ATP; after incubation for 1 hour at 25° C., 5 μL of A Z′-Lyte® Tyr 6 development reagent was added and the mixture was incubated for 1 hour at 25° C. Phosphorylation was then quantified in each well using a Safire2® fluorescence microplate reader from Tecan.

[2] = target: T1, catalytic domain of human JAK2 (Homo sapiens, UniProt O60674); experiment: Inhibition of JAK2 activity (Z'-Lyte Kinase Assay kit-Tyr 6 Peptide); type: biochemical
T1 construct: the catalytic domain of human JAK2
T1 sequence (O60674 849-1124 limits assumed): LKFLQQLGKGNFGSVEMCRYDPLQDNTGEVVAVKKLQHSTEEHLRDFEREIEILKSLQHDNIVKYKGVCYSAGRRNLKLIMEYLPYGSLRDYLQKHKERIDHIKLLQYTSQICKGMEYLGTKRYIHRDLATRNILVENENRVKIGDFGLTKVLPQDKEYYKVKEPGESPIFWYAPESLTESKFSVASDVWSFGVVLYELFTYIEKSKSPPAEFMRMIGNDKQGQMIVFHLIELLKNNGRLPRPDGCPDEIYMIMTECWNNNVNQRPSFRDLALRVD
Procedure: The inhibition of JAK2 kinase activity was determined in 384-well assay microplates using the Z′-Lyte® Kinase Assay kit-Tyr 6 Peptide kit, supplied by Invitrogen (Ref: PV4122), following the manufacturer's instructions.
as §1, with “with 0.5 μg/well” for “with 0.3 μg/mL”, “human JAK2,” for “human JAK3 (amino acid sequence 281-1124),”, “and 16” for “and 4”, “said 16” for “said 4”

Sequence of catalytic domain of human JAK3 (P52333 781-1124 limits assumed): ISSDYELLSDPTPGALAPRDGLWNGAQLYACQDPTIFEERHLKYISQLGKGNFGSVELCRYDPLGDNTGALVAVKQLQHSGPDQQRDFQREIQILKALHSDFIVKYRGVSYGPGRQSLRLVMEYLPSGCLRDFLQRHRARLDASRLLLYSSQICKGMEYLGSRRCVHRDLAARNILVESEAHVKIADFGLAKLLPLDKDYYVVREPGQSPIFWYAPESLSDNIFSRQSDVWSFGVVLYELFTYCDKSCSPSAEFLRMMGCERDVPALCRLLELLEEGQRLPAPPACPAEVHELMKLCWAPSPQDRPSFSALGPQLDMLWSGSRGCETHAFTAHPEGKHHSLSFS

## CC(=O)N1CCC(n2c(=O)[nH]c3cnc(-c4cnn5ccc(C)cc45)nc32)CC1 [Example 1s, 9-(1-acetylpiperidin-4-yl)-2-(5-methylpyrazolo[1,5-a]pyridin-3-yl)-7H-purin-8(9H)-one]
[1]
  inhibition at 1 µM: > 50%
[2]
  inhibition at 1 µM: > 50%

## N#Cc1ccn2ncc(-c3ccc4[nH]c(=O)n(C5CCOCC5)c4n3)c2c1 [Example 2, 3-(2-Oxo-3-(tetrahydro-2H-pyran-4-yl)-2,3-dihydro-1H-imidazo[4,5-b]pyridin-5-yl)pyrazolo[1,5-a]pyridine-5-carbonitrile]
[1]
  inhibition at 1 µM: > 50%
[2]
  inhibition at 1 µM: > 50%

## O=c1[nH]c2ccc(-c3cnn4ccccc34)nc2n1C1CCOCC1 [Example 2e, 5-(pyrazolo[1,5-a]pyridin-3-yl)-3-(tetrahydro-2H-pyran-4-yl)-1H-imidazo[4,5-b]pyridin-2(3H)-one]
[1]
  inhibition at 1 µM: > 50%
[2]
  inhibition at 1 µM: > 50%

## Cn1c(=O)n(C2CCOCC2)c2nc(-c3cnn4ccc(C#N)cc34)ncc21 [Example 4, 3-(7-Methyl-8-oxo-9-tetrahydro-2H-pyran-4-yl-8,9-dihydro-7H-purin-2yl)pyrazolo[1,5-a]pyridine-5-carbonitrile]
[1]
  inhibition at 1 µM: > 50%
[2]
  inhibition at 1 µM: > 50%

## Cn1c(=O)n(C2CCOCC2)c2nc(-c3cnn4ccccc34)ccc21 [Example 5s, 1-methyl-5-(pyrazolo[1,5-a]pyridin-3-yl)-3-(tetrahydro-2H-pyran-4-yl)-1H-imidazo[4,5-b]pyridin-2(3H)-one]
[1]
  inhibition at 1 µM: > 50%
[2]
  inhibition at 1 µM: > 50%

## O=c1[nH]c2ccc(-c3cnn4ccccc34)nc2n1[C@H]1CCCNC1 [Example 6x, (S)-3-(piperidin-3-yl)-5-(pyrazolo[1,5-a]pyridin-3-yl)-1H-imidazo[4,5-b]pyridin-2(3H)-one hydrochloride]
[1]
  inhibition at 1 µM: > 50%

## Cc1nc2ccc(-c3cnn4ccc(C#N)cc34)nc2n1C1CCOCC1 [Example 20, 3-(2-Methyl-3-(tetrahydro-2H-pyran-4-yl)-3H-imidazo[4,5-b]pyridin-5-yl)pyrazolo[1,5-a]pyridine-5-carbonitrile]
[1]
  inhibition at 1 µM: > 50%
[2]
  inhibition at 1 µM: > 50%

## Cn1ccnc1-c1nc2cnc(-c3cnn4ccc(C#N)cc34)nc2n1C1CCOCC1 [Example 21, 3-(8-(1-Methyl-1H-imidazol-2-yl)-9-(tetrahydro-2H-pyran-4-yl)-9H-purin-2-yl)pyrazolo[1,5-a]pyridine-5-carbonitrile]
[1]
  inhibition at 1 µM: > 50%

## CCNc1nc2cnc(-c3cnn4ccc(C#N)cc34)nc2n1C1CCOCC1 [Example 22, 3-[8-(Ethylamino)-9-tetrahydro-2H-pyran-4-yl-9H-purin-2-yl]pyrazolo[1,5-a]pyridine-5-carbonitrile]
[1]
  inhibition at 1 µM: > 50%
[2]
  inhibition at 1 µM: > 50%

## c1ccn2ncc(-c3ncc4nc(C5CCCC5)n(C5CCOCC5)c4n3)c2c1 [Example 23, 8-Cyclopentyl-2-(pyrazolo[1,5-a]pyridin-3-yl)-9-(tetrahydro-2H-pyran-4-yl)-9H-purine]
[1]
  inhibition at 1 µM: > 50%
[2]
  inhibition at 1 µM: > 50%

## CC(=O)N1CCC[C@H](n2c(=O)n(C)c3ccc(-c4cnn5ccccc45)nc32)C1 [Example 24, (S)-3-(1-Acetylpiperidin-3-yl)-1-methyl-5-(pyrazolo[1,5-a]pyridin-3-yl)-1H-imidazo[4,5-b]pyridin-2(3H)-one]
[1]
  inhibition at 1 µM: > 50%
[2]
  inhibition at 1 µM: > 50%

## Cn1c(=O)n([C@H]2CCCN(C(=O)C3(C#N)CC3)C2)c2nc(-c3cnn4ccccc34)ccc21 [Example 25, (S)-1-(3-(1-Methyl-2-oxo-5-(pyrazolo[1,5-a]pyridin-3-yl)-1H-imidazo[4,5-b]pyridin-3(2H)-yl)piperidine-1-carbonyl)cyclopropanecarbonitrile]
[1]
  inhibition at 1 µM: > 50%
[2]
  inhibition at 1 µM: > 50%

## CC(=O)n1c(=O)n([C@H]2CCCN(C(=O)CC#N)C2)c2nc(-c3cnn4ccccc34)ncc21 [Example 26f]
[2]
  inhibition at 1 µM: > 50%

## CC(=O)N1CCC[C@H](n2c(=O)n(C)c3cnc(-c4cnn5ccccc45)nc32)C1 [Example 26g]
[2]
  inhibition at 1 µM: > 50%

## N#Cc1ccn2ncc(-c3ncc4[nH]c(=O)n([C@H]5CCCN(C(=O)C6(C#N)CC6)C5)c4n3)c2c1 [Example 27, (S)-3-(9-(1-(1-Cyanocyclopropanecarbonyl)piperidin-3-yl)-8-oxo-8,9-dihydro-7H-purin-2-yl)pyrazolo[1,5-a]pyridine-5-carbonitrile]
[1]
  inhibition at 1 µM: > 50%
[2]
  inhibition at 1 µM: > 50%

## N#Cc1ccn2ncc(-c3ncc4[nH]c(=O)n([C@H]5CCCN(C(=O)C6(O)CC6)C5)c4n3)c2c1 [Example 27a]
[2]
  inhibition at 1 µM: > 50%

## C[C@H](CO)n1c(=O)[nH]c2cnc(-c3cnn4ccc(C#N)cc34)nc21 [Example 28, (R)-3-(9-(1-Hydroxypropan-2-yl)-8-oxo-8,9-dihydro-7H-purin-2-yl)pyrazolo[1,5-a]pyridine-5-carbonitrile]
[1]
  inhibition at 1 µM: > 50%

## Cc1ccn2ncc(-c3ncc4ncn([C@H]5CCCN(C(=O)CC#N)C5)c4n3)c2c1 [Example 29, (S)-3-(3-(2-(5-Methylpyrazolo[1,5-a]pyridin-3-yl)-9H-purin-9-yl)piperidin-1-yl)-3-oxopropanenitrile]
[1]
  inhibition at 1 µM: > 50%
[2]
  inhibition at 1 µM: > 50%

## CC(=O)OCn1c(=O)n([C@H]2CCCN(C(=O)CC#N)C2)c2nc(-c3cnn4ccccc34)ncc21 [Example 31, (S)-(9-(1-(2-Cyanoacetyl)piperidin-3-yl)-8-oxo-2-(pyrazolo[1,5-a]pyridin-3-yl)-8,9-dihydro-7H-purin-7-yl)methyl acetate]
[1]
  inhibition at 1 µM: > 50%
[2]
  inhibition at 1 µM: > 50%

## C[C@H](CO)n1c(=O)n(C)c2cnc(-c3cnn4ccc(C#N)cc34)nc21 [Example 32, (R)-3-(9-(1-Hydroxypropan-2-yl)-7-methyl-8-oxo-8,9-dihydro-7H-purin-2-yl)pyrazolo[1,5-a]pyridine-5-carbonitrile]
[1]
  inhibition at 1 µM: > 50%

## Nc1nc2cnc(-c3cnn4ccccc34)nc2n1C1CCOCC1 [Example 33, 2-(Pyrazolo[1,5-a]pyridin-3-yl)-9-(tetrahydro-2H-pyran-4-yl)-9H-purin-8-amine]
[1]
  inhibition at 1 µM: > 50%
[2]
  inhibition at 1 µM: > 50%

## O=C1CCCN1c1nc2cnc(-c3cnn4ccccc34)nc2n1C1CCOCC1 [Example 34, 1-(2-(Pyrazolo[1,5-a]pyridin-3-yl)-9-(tetrahydro-2H-pyran-4-yl)-9H-purin-8-yl)pyrrolidin-2-one]
[1]
  inhibition at 1 µM: > 50%
[2]
  inhibition at 1 µM: > 50%

## CCC(=O)Nc1nc2cnc(-c3cnn4ccccc34)nc2n1C1CCOCC1 [Example 34b]
[2]
  inhibition at 1 µM: > 50%

## Cn1c(=O)n([C@H]2CC[C@H](O)CC2)c2nc(-c3cnn4ccc(C#N)cc34)ncc21 [Example 35, 3-(9-(trans-4-Hydroxycyclohexyl)-7-methyl-8-oxo-8,9-dihydro-7H-purin-2-yl)pyrazolo[1,5-a]pyridine-5-carbonitrile]
[1]
  inhibition at 1 µM: > 50%

## N#Cc1ccn2ncc(-c3ncc4[nH]c(=O)n(CC(=O)NCC(F)(F)F)c4n3)c2c1 [Example 36, 2-(2-(5-Cyanopyrazolo[1,5-a]pyridin-3-yl)-8-oxo-7H-purin-9(8H)-yl)-N-(2,2,2-trifluoroethyl)acetamide]
[1]
  inhibition at 1 µM: > 50%

## Cn1c(=O)n(C2CCOCC2)c2nc(-c3cnc4ccccn34)ncc21 [Example 37, 2-(Imidazo[1,2-a]pyridin-3-yl)-7-methyl-9-(tetrahydro-2H-pyran-4-yl)-7H-purin-8(9H)-one]
[1]
  inhibition at 1 µM: > 50%
